According to patent publication US5780509A, “Compound bearing two, 2,6-diiodophenol-4-YL groups and diagnostic drug for iodine allergy” (Muromachi Kagaku Kogyo Kaisha, Ltd., priority 1994, dated 1998):
Non-standard residues stand in square brackets, D forms with d. Residues, ends and D or L forms follow the SMILES beside them. No end group written: not given here. Tyr(3,5-I2) = N[C@@H](Cc1cc(I)c(O)c(I)c1)C(=O)O

How the values were obtained:
anti-iodine antibody [1] = assay: ELISA inhibition on anti-iodine antibody (single concentration); type: binding, guinea-pig; parameters: key to ELISA inhibitory activity, judgment: +: a compound had inhibitory activity; -: a compound did not have inhibitory activity
Procedure: (§1) Guinea-pigs were immunized with iodine by injecting subcutaneously 1 mg of iodine containing potassium iodide solution treated with complete Freund's adjuvant seven times at intervals of 2 weeks, and anti-iodine antiserum was obtained from these animals. Antibody titers of the sera were determined by enzyme linked immunosorbent assay (ELISA) using 96 well microplate coated with iodinated guinea pig serum albumin (I-GSA) ELISA inhibition activities of the following compounds were studied. The compounds used were potassium iodide, tyrosine and its derivatives such as L-tyrosine, monoiodo-L-tyrosine, diiodotyrosine, hexaiodo-L-trityrosine, L-hexatyrosine and 12 iodo-L-hexatyrosine, and iodinated X-ray contrast media such as amidotrizoic acid, iodamide, ioxaglic acid, iohexol, iopamidol and iomeprol.
(§2) ELISA inhibition study was performed as follows. Antibody concentration of anti-iodine antiserum gave the maximum optical density in ELISA till one hundredfold serum dilution. Accordingly, seven steps of twofold serial dilution of anti-iodine antiserum, starting from 50-fold serum dilution, were made with physiological saline as a diluent. To each of the serially diluted sera, were added equal volume of solution containing each of the test compounds described above. After overnight incubation at 4 C, antibody activity was determined by ELISA. Phosphate buffered physiological saline (PBS) was used as a control. ELISA inhibitory activities of the test compounds were determined at the serum dilution which gave about 50% of the maximum optical density (OD415nm =2.6) of ELISA of control at serum dilution of one hundredfold. The inhibitory activity was calculated by the following calculation formula.
Inhibition rate=[1-Optical density under test compouund/Optical density

[2] = tested on: guinea-pigs immunized with iodine (iodine-sensitized) and non-sensitized guinea-pigs; assay: Active cutaneous anaphylaxis (ACA) reaction, elicitation antigenicity; type: in vivo, guinea-pig (male SPF, Hartley strain); parameters: key to Mean diameter of blue spots, non-sensitized guinea-pig / Mean diameter of blue spots, iodine-sensitized guinea pig (second value) / Mean diameter of blue spots, iodine-sensitized guinea pig (first value): --: Negative response; **: Weak response; conditions: for Mean diameter of blue spots, iodine-sensitized guinea pig (first value) / Mean diameter of blue spots, iodine-sensitized guinea pig (second value) / Mean diameter of blue spots, non-sensitized guinea-pig: 30 min; for ACA reaction (in words): intradermal injection, guinea-pigs sensitized with iodine
Text: The elicitation antigenicity of iodinated tyrosine derivatives was studied in the bases of the active cutaneous anaphylaxis (ACA) reaction in guinea-pigs immunized with iodine.
Animals: Male SPF guinea-pigs of Hartley strain, weighing 300~350 g were purchased from Charles River Japan Co., Ltd. These were immunized after having been acclimated for one week.
Sensitization: A solution of iodine potassium iodide (Wako Junyaku, special grade reagent) and complete Freund's adjuvant (Difco) were mixed in equal amounts to form an emulsion. This was administered subcutaneously into the back of guinea-pigs at a dose of 2 mg of iodine per animal 3 times at intervals of 2 weeks. Active cutaneous anaphylaxis (ACA) was elicited 2 weeks after the last sensitization injection.
ACA Induction: 2% Evans blue physiological solution (0.5 ml/animal) was administered intravenously to guinea-pigs, and immediately thereafter 0.1 ml of an elicitation antigen was administered intradermally into the back, and after 30 min. the existence of pigment leakage at the intradermally injected sites was observed.
Elicitation antigen: Iodinated dityrosine, iodinated trityrosine, iodinated dityrosylphenylalanine were administered intracutaneously at 0.1 ml/site. Guinea-pig serum albumin (fraction V: Sigma) was iodinated and used as a positive control. Corresponding noniodinated ones were also administered intradermally as negative controls.
Iodination reaction: To a 50 mM boric acid buffer solution (pH 9.5) of 10 mg/ml of dityrosine, trityrosine, or dityrosylphenylalanine (all produced by Sigma Co., Ltd.) or guinea-pig serum albumin (abbreviated hereafter as GSA), a 0.5M solution of iodine was added at a ratio of 10:1, and these were reacted at 37 C. overnight. The excess iodine in the reaction mixture was reduced by adding sodium thiosulfate (Nakarai Chemical Co., Ltd.). For purification of the iodinated tyrosine derivatives, the reaction mixture was extracted with ethyl acetate and dried with magnesium sulfate, and hexane was added to obtain crystals. For purification of the iodinated GSA, the reaction mixture was purified by passing it through a Sephadex G25 column.

anti-iodine antibody [3] = assay: ELISA inhibition potency (OD50) on anti-iodine antibody; type: binding, guinea-pig; conditions: serial twofold dilution, equal volume of 50-fold diluted anti-iodine antiserum; read-out: Inhibitory activity (OD50): concentration which decreased optical density of ELISA to a half of the control
Procedure: as §1, §2
In the next, ELISA inhibition study was undertaken to determine the potency of ELISA inhibitory activity of active compounds. […] The inhibitory activity was expressed as the concentration which decreased optical density of ELISA to a half (OD50) of the control.

For `N[C@@H](Cc1ccc(O)cc1)C(=O)O` [L-Tyrosine], the ELISA inhibition rate (anti-iodine antibody [1]; 10 mM) was -2.6% and the “ELISA inhibitory activity, judgment” value (anti-iodine antibody [1]; 10 mM) was “-”.

With `CNC(=O)c1c(I)c(C(=O)NCC(=O)Nc2c(I)c(C(=O)O)c(I)c(C(=O)NCCO)c2I)c(I)c(N(C)C(C)=O)c1I` [Ioxaglic acid] the ELISA inhibition rate (anti-iodine antibody [1]; 10 mM) was -9.4% and the “ELISA inhibitory activity, judgment” value (anti-iodine antibody [1]; 10 mM) was “+”.

In the case of YYYYYY [L-Hexatyrosine], the ELISA inhibition rate (anti-iodine antibody [1]; 1 mM) is reported as 0% and the “ELISA inhibitory activity, judgment” value (anti-iodine antibody [1]; 1 mM) is reported as “-”.

`N[C@@H](Cc1ccc(O)cc1)C(=O)N[C@@H](Cc1ccc(O)cc1)C(=O)N[C@@H](Cc1ccc(O)cc1)C(=O)O` [Trityrosine, trityrosine, reference compound] (H-Tyr-Tyr-Tyr-OH) was tested, and the “Mean diameter of blue spots, iodine-sensitized guinea pig (first value)” value (from here on “Mean diameter of blue spots … (first value)”) ([2]; 1000 μg/site intradermal) was “--”, the “Mean diameter of blue spots, iodine-sensitized guinea pig (second value)” value (from here on “Mean diameter of blue spots … (second value)”) ([2]; 1000 μg/site intradermal) was “--” and the “Mean diameter of blue spots, non-sensitized guinea-pig” value ([2]; 1000 μg/site intradermal) was “--”.

With `[I-].[K+]` [Potassium iodide] the ELISA inhibition rate (anti-iodine antibody [1]; 10 mM) was 0% and the “ELISA inhibitory activity, judgment” value (anti-iodine antibody [1]; 10 mM) was “-”.

In the case of `N[C@@H](Cc1cc(I)c(O)c(I)c1)C(=O)N[C@@H](Cc1cc(I)c(O)c(I)c1)C(=O)N[C@@H](Cc1cc(I)c(O)c(I)c1)C(=O)N[C@@H](Cc1cc(I)c(O)c(I)c1)C(=O)N[C@@H](Cc1cc(I)c(O)c(I)c1)C(=O)N[C@@H](Cc1cc(I)c(O)c(I)c1)C(=O)O` [12 iodo-L-hexatyrosine] (H-[Tyr(3,5-I2)][Tyr(3,5-I2)][Tyr(3,5-I2)][Tyr(3,5-I2)][Tyr(3,5-I2)][Tyr(3,5-I2)]-OH), the IC50 (anti-iodine antibody [3]) is reported as 125 µM, the ELISA inhibition rate (anti-iodine antibody [1]; 1 mM) is reported as 94.3% and the “ELISA inhibitory activity, judgment” value (anti-iodine antibody [1]; 1 mM) is reported as “+”.

`N[C@@H](Cc1cc(I)c(O)c(I)c1)C(=O)N[C@@H](Cc1cc(I)c(O)c(I)c1)C(=O)O` (H-[Tyr(3,5-I2)]-[Tyr(3,5-I2)]-OH) was tested, and the “Mean diameter of blue spots … (first value)” value ([2]; 1 μg/site intradermal) was “--”, the “Mean diameter of blue spots … (second value)” value ([2]; 1 μg/site intradermal) was “--” and the “Mean diameter of blue spots, non-sensitized guinea-pig” value ([2]; 1 μg/site intradermal) was “--”. The “Mean diameter of blue spots … (first value)” value ([2]; 10 μg/site intradermal) was 5.0 mm, the “Mean diameter of blue spots … (second value)” value ([2]; 10 μg/site intradermal) was “--” and the “Mean diameter of blue spots, non-sensitized guinea-pig” value ([2]; 10 μg/site intradermal) was “--”. The “Mean diameter of blue spots … (first value)” value ([2]; 100 μg/site intradermal) was 7.0 mm, the “Mean diameter of blue spots … (second value)” value ([2]; 100 μg/site intradermal) was 5.0 mm and the “Mean diameter of blue spots, non-sensitized guinea-pig” value ([2]; 100 μg/site intradermal) was “--”. For the same compound, the “ACA reaction (in words)” value [2] was “ACA reaction was elicited”.

For `N[C@@H](Cc1ccc(O)cc1)C(=O)N[C@@H](Cc1ccc(O)cc1)C(=O)N[C@@H](Cc1ccccc1)C(=O)O` [Dityrosylphenylalanine, L-tyrosyl-L-tyrosylphenylalanine, reference compound] (H-Tyr-Tyr-Phe-OH), the “Mean diameter of blue spots … (first value)” value ([2]; 1000 μg/site intradermal) was “--”, the “Mean diameter of blue spots … (second value)” value ([2]; 1000 μg/site intradermal) was “--” and the “Mean diameter of blue spots, non-sensitized guinea-pig” value ([2]; 1000 μg/site intradermal) was “--”.

For `CC(=O)Nc1c(I)c(NC(C)=O)c(I)c(C(=O)O)c1I` [Amidotrizoic acid], the ELISA inhibition rate (anti-iodine antibody [1]; 10 mM) was 0.3% and the “ELISA inhibitory activity, judgment” value (anti-iodine antibody [1]; 10 mM) was “-”.

In the case of `N[C@@H](Cc1cc(I)c(O)c(I)c1)C(=O)N[C@@H](Cc1cc(I)c(O)c(I)c1)C(=O)N[C@@H](Cc1ccccc1)C(=O)O` [Iodinated dityrosylphenylalanine] (H-[Tyr(3,5-I2)]-[Tyr(3,5-I2)]-Phe-OH), the “Mean diameter of blue spots … (first value)” value ([2]; 1 μg/site intradermal) is reported as “--”, the “Mean diameter of blue spots … (second value)” value ([2]; 1 μg/site intradermal) is reported as “--” and the “Mean diameter of blue spots, non-sensitized guinea-pig” value ([2]; 1 μg/site intradermal) is reported as “--”. For the same compound, the “Mean diameter of blue spots … (first value)” value ([2]; 10 μg/site intradermal) was 7.0 mm, the “Mean diameter of blue spots … (second value)” value ([2]; 10 μg/site intradermal) was “--” and the “Mean diameter of blue spots, non-sensitized guinea-pig” value ([2]; 10 μg/site intradermal) was “--”. The “Mean diameter of blue spots … (first value)” value ([2]; 100 μg/site intradermal) was 8.0 mm, the “Mean diameter of blue spots … (second value)” value ([2]; 100 μg/site intradermal) was 3.0 mm and the “Mean diameter of blue spots, non-sensitized guinea-pig” value ([2]; 100 μg/site intradermal) was “--”. The “ACA reaction (in words)” value [2] was “ACA reaction was elicited”.

For `CN(C(=O)CO)c1c(I)c(C(=O)NCC(O)CO)c(I)c(C(=O)NCC(O)CO)c1I` (stereo not shown) [Iomeprol], the ELISA inhibition rate (anti-iodine antibody [1]; 10 mM) was -1.8% and the “ELISA inhibitory activity, judgment” value (anti-iodine antibody [1]; 10 mM) was “+”.

With `N[C@@H](Cc1ccc(O)cc1)C(=O)N[C@@H](Cc1ccc(O)cc1)C(=O)O` [reference compound] (H-Tyr-Tyr-OH) the “Mean diameter of blue spots … (first value)” value ([2]; 1000 μg/site intradermal) was “--”, the “Mean diameter of blue spots … (second value)” value ([2]; 1000 μg/site intradermal) was “--” and the “Mean diameter of blue spots, non-sensitized guinea-pig” value ([2]; 1000 μg/site intradermal) was “--”.

With `CC(=O)N(CC(O)CO)c1c(I)c(C(=O)NCC(O)CO)c(I)c(C(=O)NCC(O)CO)c1I` (stereo not shown) [Iohexol] the ELISA inhibition rate (anti-iodine antibody [1]; 10 mM) was -5.0% and the “ELISA inhibitory activity, judgment” value (anti-iodine antibody [1]; 10 mM) was “+”.

In the case of `N[C@@H](Cc1cc(I)c(O)c(I)c1)C(=O)O` [Diiodo-L-tyrosine], the IC50 (anti-iodine antibody [3]) is reported as 5000 µM, the ELISA inhibition rate (anti-iodine antibody [1]; 10 mM) is reported as 100% and the “ELISA inhibitory activity, judgment” value (anti-iodine antibody [1]; 10 mM) is reported as “+”.

With `CC(=O)NCc1c(I)c(NC(C)=O)c(I)c(C(=O)O)c1I` [Iodamide] the ELISA inhibition rate (anti-iodine antibody [1]; 10 mM) was 3.5% and the “ELISA inhibitory activity, judgment” value (anti-iodine antibody [1]; 10 mM) was “+”.

With `N[C@@H](Cc1ccc(O)c(I)c1)C(=O)O` [Monoiodo-L-tyrosine] the ELISA inhibition rate (anti-iodine antibody [1]; 10 mM) was 5.6% and the “ELISA inhibitory activity, judgment” value (anti-iodine antibody [1]; 10 mM) was “-”.

In the case of `C[C@H](O)C(=O)Nc1c(I)c(C(=O)NC(CO)CO)c(I)c(C(=O)NC(CO)CO)c1I` [Iopamidol], the ELISA inhibition rate (anti-iodine antibody [1]; 10 mM) is reported as -6.5% and the “ELISA inhibitory activity, judgment” value (anti-iodine antibody [1]; 10 mM) is reported as “+”.
